According to patent US12616687B2, “Treatment of viral infection, disease or disorder using a selective sir agonist” (Prilenia Neurotherapeutics Ltd., priority 2020, dated 2026):
Where “and” joins values, the source holds several entries; their conditions need not be identical. Identical values can stand only once. Entries after “also recorded” stand apart in the source; their conditions may differ. Like-named read-outs stand apart in the source and are kept apart here.

How the values were obtained:
[1] = test system: YAC128 HD striatal neurons; experiment: mitochondrial ROS (H2O2, MitoPY1) in YAC128 HD striatal neurons; format: cell-based, mouse; conditions: Ant A 2 μM
Experimental: YAC128 is a mouse model of Huntington's Disease (HD), Striatal neurons from wt or YAC128 were treated or not with 1 μM pridopidine and incubated with MitoPY1 fluorescence probe. The mitochondrial respiration inhibitor Antimycin A (Ant A, 2 μM) was used to induce release of Mitochondrial H2O2 and oxidative stress. Mitochondrial H2O2 was recorded in spinning disk confocal before and after administration of Ant A (n=4, considering ˜20 cells/condition).
Striatal neurons from YAC128 HD mice were treated with 1 μM pridopidine prior to induction of ROS production by the mitochondrial respiration inhibitor antimycin A (Ant A).

[2] = at the concentration showing anti-viral activity; cited from earlier work
[3] = test system: lymphoblasts from HD patients; experiment: mitochondrial membrane potential (TMRE) in control and S1R-KD HD lymphoblasts; format: cell-based, human
Experimental: Cells were treated with pridopidine 5 μM, then challenged with 0.1 mM H2O2.

SARS-CoV-2 = conditions: viral titer assay; cited from earlier work
S2R = S2R (Homo sapiens, UniProt Q5BJF2); conditions: cited from earlier work
S1R [4] = molecular target: T1, S1R (Homo sapiens, UniProt Q99720); conditions: cited from earlier work
[5] = test system: Striatal WT and YAC128 (HD) neurons; conditions: 24 h; for mitochondrial membrane potential (MMP) in HD (YAC128) neurons: 0.1 and 1 μM
Text: The role of S1R in regulating mitochondrial membrane potential (MMP) was studied in striatal neurons from wild-type (WT) control and YAC128 HD mice.

XBP1s = conditions: myc-Htt96Q cells, 3 μM (p<0.01)
eIF2α-phosphorylation = experiment: eIF2α-phosphorylation, ER stress induced by thapsigargin; format: cell-based; conditions: 2 μg/ml thapsigargin
Experimental: HEK293 cells transfected with Htt20Q-mCherry (wt HTT) were treated with 2 μg/ml thapsigargin to induce ER stress.

S1R [6] = molecular target: T1, S1R
[7] = test system: interferon-stimulated genes (ISGs)
ATF6 = conditions: myc-Htt96Q cells
Experimental: Cells expressing myc-Htt96Q (mutant Htt) were treated with pridopidine 0.03 and 3 μM. Immunoblots were reacted with anti-ATF6 quantified and normalized with anti-tubulin as loading controls.

GADD34 = test system: GADD34
Experimental: (§1) Cells expressing myc-Htt96Q (mutant Htt) or myc-Htt20Q (wt Htt) were treated with pridopidine 3 uM. Immunoblots were reacted with anti-ATF4 (FIG. 7A), anti-CHOP (FIG. 7B) and anti-GADD34 (FIG. 7C), quantified and normalized with anti-actin or anti-tubulin as loading controls.

CHOP = test system: CHOP
Experimental: as §1

ATF4 = test system: ATF4
Experimental: as §1

[8] = pridopidine 5 μM, 24 h, 0.1 mM H2O2
[9] = HEK293, Htt96Q-induced ER stress

T1 sequence (Q99720 whole entry): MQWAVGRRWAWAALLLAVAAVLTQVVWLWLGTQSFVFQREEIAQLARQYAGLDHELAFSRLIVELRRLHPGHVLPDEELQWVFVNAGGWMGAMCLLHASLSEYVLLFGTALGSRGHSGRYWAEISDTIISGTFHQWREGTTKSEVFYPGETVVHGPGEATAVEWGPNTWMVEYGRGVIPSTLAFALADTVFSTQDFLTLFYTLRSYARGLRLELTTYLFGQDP
Sequence of S2R (Q5BJF2 whole entry): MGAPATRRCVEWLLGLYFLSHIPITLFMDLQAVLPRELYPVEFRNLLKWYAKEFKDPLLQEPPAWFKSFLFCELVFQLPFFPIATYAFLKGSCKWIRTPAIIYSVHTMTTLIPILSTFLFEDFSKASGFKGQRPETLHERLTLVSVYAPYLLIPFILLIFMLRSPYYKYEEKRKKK

CCCCCC[C@H]1C(=O)O[C@H](C)[C@H](NC(=O)c2cccc(NC=O)c2O)C(=O)O[C@@H](C)[C@@H]1OC(=O)CC(C)C [Ant A, Antimycin A, reference compound]
increase of mitochondrial H2O2 / ROS production ([1]; untreated YAC128 neurons): ~2 fold

CN1CCC[C@@H]1CCO[C@](C)(c1ccccc1)c1ccc(Cl)cc1 [Clemastine]
reduction in cell viability / cell death [2]: ~40%

OO [Compound H2O2, H2O2, reference compound]
reduction of MMP in S1R+/+ cells ([3]; 0.1 mM H2O2, HD lymphoblasts): 25% | reduction of MMP in S1R KD cells ([3]; 0.1 mM H2O2, HD lymphoblasts, S1R knocked down ~83%): 75%

O=C(CCCN1CCC(O)(c2ccc(Cl)cc2)CC1)c1ccc(F)cc1 [Haloperidol]
reduction in cell viability / cell death [2]: ~30%

CCN(CCO)CCCC(C)Nc1ccnc2cc(Cl)ccc12 (stereo not drawn) [hydroxychloroquine]
reduction in cell viability / cell death [2]: ~30% | concentration at which anti-viral activity was demonstrated (SARS-CoV-2): ~2 µM | Ki (S2R): 0.8 µM | Ki (S1R [4]): 0.2 µM

CCCN1CCC(c2cccc(S(C)(=O)=O)c2)CC1 [pridopidine, 4-[3-(methylsulfonyl)phenyl]-1-propyl-piperidine]
mitochondrial membrane potential (MMP) in WT neurons ([5]; 0.1 μM): trend towards increasing MMP | mitochondrial membrane potential (MMP) in WT neurons ([5]; 1 μM): significant increase | mitochondrial membrane potential (MMP) in HD (YAC128) neurons [5]: significant increase | mitochondrial membrane potential (MMP) in HD (YAC128) neurons ([5]; listed as Pridopidine): significantly restores the impaired MMP | mitochondrial membrane potential (MMP) in wt neurons ([5]; concentration not stated (FIG. 11 legend)): enhances MMP | MMP after H2O2 challenge in S1R KD cells [3, 8]: abolished and not | MMP after H2O2 challenge in S1R+/+ cells [3, 8]: completely restored | reduction in XBP1s mRNA levels (XBP1s): 25% | mitochondrial ROS (H2O2) production after Ant A ([1]; YAC128 striatal neurons, pridopidine 1 μM): robust and significant reduction of ROS production by mitochondria back to normal levels; also recorded: inhibits H2O2 release and oxidative stress | eIF2α-p (ratio of eIF2α-P/eIF2α) (eIF2α-phosphorylation; HEK293, wt HTT, pridopidine 3 μM, 8 hours): caused a reduction; also recorded: reduces p-eIF2α levels | fold higher affinity for the S1R vs the S2R (S1R [6]): 95 fold | reduction of expression of ISGs (IFIT1, EIF2AK2, IRF7 indexed together) [7]: 30-50% | reduction of ATF6 (ATF6; 0.03 μM): ~10% | reduction of ATF6 (ATF6; 3 μM): 35% and ~30% | GADD-34 protein level after treatment (GADD34; [9]): normal wt levels | reduction of GADD-34 levels (GADD34; myc-Htt96Q cells, 3 μM (p<0.01)): ~2.5 fold | CHOP protein level after treatment (CHOP; [9]): normal wt levels | reduction of CHOP levels (CHOP; myc-Htt96Q cells, 3 μM): ~2 fold | ATF4 protein level after treatment (ATF4; [9]): normal wt levels | reduction of ATF4 levels (ATF4; myc-Htt96Q cells, 3 μM (p<0.05)): ~4.5 fold

C/C=C(/C)C(=O)O[C@H]1C(C)=C2[C@H]([C@@H]1OC(=O)CCCCCCC)[C@@](C)(OC(C)=O)C[C@H](OC(=O)CCC)[C@@]1(O)[C@H]2OC(=O)[C@@]1(C)O [thapsigargin, reference compound]
increase in phosphorylated eIF2α (eIF2α-p) (eIF2α-phosphorylation; HEK293, myc-Htt20Q): 70%
